pEC50: −log10 of the molar value. Some results are limits rather than exact numbers.

The results in this text go back to patent US12552826B2, “PRMT5 inhibitors” (Merck Sharp & Dohme LLC, priority 2018, dated 2026).

For this assay, the target named is T1, PRMT5 (Homo sapiens, UniProt O14744).
T1 construct: endogenous in cells; host or cells: MCF-7
T1 sequence (O14744 whole entry): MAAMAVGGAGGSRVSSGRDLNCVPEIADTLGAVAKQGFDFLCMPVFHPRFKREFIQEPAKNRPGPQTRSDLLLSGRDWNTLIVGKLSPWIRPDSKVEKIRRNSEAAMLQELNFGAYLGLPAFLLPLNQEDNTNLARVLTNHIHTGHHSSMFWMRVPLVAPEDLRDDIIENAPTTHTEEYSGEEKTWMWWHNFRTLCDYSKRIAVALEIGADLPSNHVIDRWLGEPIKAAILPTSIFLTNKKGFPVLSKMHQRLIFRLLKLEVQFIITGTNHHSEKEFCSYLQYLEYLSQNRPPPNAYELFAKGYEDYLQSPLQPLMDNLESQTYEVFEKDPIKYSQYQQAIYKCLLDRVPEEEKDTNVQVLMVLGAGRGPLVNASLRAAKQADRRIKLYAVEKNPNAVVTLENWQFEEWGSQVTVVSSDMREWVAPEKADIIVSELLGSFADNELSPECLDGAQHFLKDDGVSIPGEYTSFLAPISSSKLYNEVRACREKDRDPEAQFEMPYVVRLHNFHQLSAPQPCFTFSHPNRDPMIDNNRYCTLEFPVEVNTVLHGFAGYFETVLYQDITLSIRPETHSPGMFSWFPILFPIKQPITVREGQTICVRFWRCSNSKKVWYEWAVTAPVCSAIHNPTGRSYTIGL
T1 sequence (Q9BQA1 whole entry partner): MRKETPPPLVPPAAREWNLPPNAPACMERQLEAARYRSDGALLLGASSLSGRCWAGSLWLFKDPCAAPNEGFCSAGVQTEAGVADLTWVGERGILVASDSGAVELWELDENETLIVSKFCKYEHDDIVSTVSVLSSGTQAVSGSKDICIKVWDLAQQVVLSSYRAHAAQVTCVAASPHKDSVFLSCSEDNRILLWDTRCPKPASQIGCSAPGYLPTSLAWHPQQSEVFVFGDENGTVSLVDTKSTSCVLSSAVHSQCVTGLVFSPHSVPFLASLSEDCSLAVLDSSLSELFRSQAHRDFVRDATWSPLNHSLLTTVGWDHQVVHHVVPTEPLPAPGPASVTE
Kind of assay: PRMT5 Cell Target Engagement (TE) Assay. Conditions: MCF-7 cells, 3 days treatment, nuclear SDMA by high content imaging. Type of assay: cell-based. From the text:
The PRMT5 TE assay is a biomarker assay for identifying compounds that inhibit symmetric dimethylation of arginine (SDMA) of PRMT5 substrates. The following substrates have been reported for PRMT5: Histone H2A and H4 R3, Histone H3 R2, Histone H3 R8, spliceosome Sm proteins, ribosomal protein RPS10, p53, FEN1, nucleoplasmin, nucleolin, EGFR and EBNA. The assay will focus on detecting symmetrically dimethylated nuclear proteins using high content imaging technology. Detection of the expression of symmetrically dimethylated nuclear proteins is through a mixture of primary rabbit monoclonal antibodies to SDMA (CST 13222), which in turn recognized by an Alexafluor 488 dye-conjugated anti-rabbit IgG secondary antibody. The IN Cell Analyzer 2200 or Opera-Phenix measures nuclear Alexafluor 488 fluorescent dye intensity that is directly related to the level of expression of symmetrically dimethylated nuclear proteins at the single cell level. Nuclear AF488 dye intensities are compared to the mean value for DMSO treated cells (MIN) to report percent of inhibition for each compound-treated well.
In this assay, the cell potency (EC50) of each compound was determined from a ten point (1:3 serial dilution; top compound concentration of 10000 nM) titration curve using the following outlined procedure. Each well of a BD falcon collagen coated black/clear bottom 384-well plate was seeded with 4000 MCF-7 cells in 30 μl media and allowed to attach for 5 hours. Media is ATCC-formulated Eagle's Minimum Essential Medium, Catalog No. 30-2003. The following components were added to the base medium: 0.01 mg/mL human recombinant insulin; fetal bovine serum to a final concentration of 10%. Additional 30 μl of media containing 2× compounds were added to each well. Cells were treated for 3 days in 37° C. CO2 incubator. On day 3, cells were fixed with Cytofix, permeabilized with 0.4% Triton-X-100/Cytofix, and washed with D-PBS without Ca/Mg. Cells were blocked with Licor Odessey blocking reagent for 1 hour at room temperature, followed by incubation with anti-SDMA (1:1000) antibody at 4° C. overnight. 1° antibody was removed, followed by three washings with DPBS without Ca/Mg and 0.05% Tween20. Hoechst (5 μg/mL), Cell Mask deep stain (1:2000) and Alexa488-conjugated goat anti-rabbit IgG (2 μg/mL) was added for 1 hour at room temperature. A final washing step (three washes) was performed before sealing plate for imaging on In Cell Analyzer 2200 or Opera-Phenix. Images from analyzer were uploaded to Columbus for image analysis. IC50 values were determined by 4 parameters robust fit of percent fluorescence units vs. (Log10) compound concentrations.
Regarding `C[C@@]1(O)[C@@H]([C@@H](O)c2ccc(Cl)c(Cl)c2)O[C@@H](n2ccc3c(N)ncnc32)[C@@H]1O` [Example 14, 7-[(5S)-5-C-(3,4-dichlorophenyl)-3-C-methyl-beta-D-ribofuranosyl]-7H-pyrrolo[2,3-d]pyrimidin-4-amine], the pEC50 is less than 5.00.

The molecule `Cc1ncnc2c1ccn2[C@@H]1O[C@H]([C@@H](C)c2cc(C(F)F)c(F)c3c2CNCC3)[C@@](C)(O)[C@H]1O` (single isomer, unassigned) [Example 93] showed a pEC50 of 8.85.

With `C[C@@]1(O)[C@@H]([C@@H](O)c2ccc(F)cc2Cl)O[C@@H](n2ccc3c(N)ncnc32)[C@@H]1O` [Example 49, 7-[(5S)-5-C-(2-chloro-4-fluorophenyl)-3-C-methyl-beta-D-ribofuranosyl]-7H-pyrrolo[2,3-d]pyrimidin-4-amine], the negative logarithm of the EC50 (pEC50) is less than 5.00.

Consider `C[C@@]1(O)[C@@H]([C@H](O)c2ccc(F)cc2)O[C@@H](n2ccc3c(N)ncnc32)[C@@H]1O` [Example 24, 7-[(5R)-5-C-(4-fluorophenyl)-3-C-methyl-beta-D-ribofuranosyl]-7H-pyrrolo[2,3-d]pyrimidin-4-amine], for which the pEC50 is 6.32.

In turn, `C[C@@]1(O)[C@@H]([C@H](O)c2cc(Cl)cc(Cl)c2)O[C@@H](n2ccc3c(N)ncnc32)[C@@H]1O` [Example 18, 7-[(5R)-5-C-(3,5-dichlorophenyl)-3-C-methyl-beta-D-ribofuranosyl]-7H-pyrrolo[2,3-d]pyrimidin-4-amine] gave a pEC50 of 7.85.

As to `C[C@H](c1cc(F)cc(C(F)F)c1)[C@H]1O[C@@H](n2ccc3c(N)ncnc32)[C@H](O)[C@]1(C)O` (single isomer, unassigned) [Example 83], the pEC50 is 6.92.

Regarding `C[C@@]1(O)[C@@H]([C@@H](O)c2cc(C(F)F)c(F)c3c2CNCC3)O[C@@H](n2ccc3c(N)ncnc32)[C@@H]1O` [Example 9, (2R,3S,4R,5R)-5-(4-amino-7H-pyrrolo[2,3-d]pyrimidin-7-yl)-2-((S)-(6-(difluoromethyl)-5-fluoro-1,2,3,4-tetrahydroisoquinolin-8-yl)(hydroxy)methyl)-3-methyltetrahydrofuran-3,4-diol], the negative-log EC50 (pEC50) is 6.80.

The molecule `Cc1ncnc2c1ccn2[C@@H]1O[C@H]([C@@H](O)c2cc(C(F)F)c(F)c3c2CNCC3)[C@@](C)(O)[C@H]1O` (single isomer, unassigned) [Example 90] showed a pEC50 of 8.13.

The molecule `C[C@@]1(O)[C@@H]([C@@H](O)c2ccc(F)c(F)c2F)O[C@@H](n2ccc3c(N)ncnc32)[C@@H]1O` [Example 51, 7-[(5S)-3-C-methyl-5-C-(2,3,4-trifluorophenyl)-beta-D-ribofuranosyl]-7H-pyrrolo[2,3-d]pyrimidin-4-amine] showed a pEC50 of less than 5.00.

The molecule `C[C@@]1(O)[C@@H]([C@H](O)c2cncc(C(F)F)c2)O[C@@H](n2ccc3c(N)ncnc32)[C@@H]1O` [Example 74, 7-{(5R)-5-C-[5-(difluoromethyl)pyridin-3-yl]-3-C-methyl-beta-D-ribofuranosyl}-7H-pyrrolo[2,3-d]pyrimidin-4-amine] gave a pEC50 of 5.57.

On to `C[C@]1(O)[C@@H](O)[C@H](n2ccc3c(N)ncnc32)O[C@@H]1[C@](C)(O)c1ccnc(C(F)F)c1` [Example 80, 7-{6-deoxy-5-C-[2-(difluoromethyl)pyridin-4-yl]-3-C-methyl-alpha-L-talofuranosyl}-7H-pyrrolo[2,3-d]pyrimidin-4-amine], for which the pEC50 is 6.44.

`Cc1ncnc2c1ccn2[C@@H]1O[C@H]([C@H](C)c2cc(C(F)F)c(F)c3c2CNCC3)[C@@](C)(O)[C@H]1O` (single isomer, unassigned) [Example 92]: the pEC50 was 6.56.

In turn, `Cc1ccc([C@@H](O)[C@H]2O[C@@H](n3ccc4c(N)ncnc43)[C@H](O)[C@]2(C)O)cc1` [Example 30, 7-[(5R)-3-C-methyl-5-C-(4-methylphenyl)-beta-D-ribofuranosyl]-7H-pyrrolo[2,3-d]pyrimidin-4-amine] showed a pEC50 of 5.50.

As to `C[C@@]1(O)[C@@H]([C@H](O)c2ccccc2)O[C@@H](n2ccc3c(N)ncnc32)[C@@H]1O` [Example 11, 7-[(5R)-3-C-methyl-5-C-phenyl-beta-D-ribofuranosyl]-7H-pyrrolo[2,3-d]pyrimidin-4-amine], the negative logarithm of the EC50 (pEC50) was 6.69.

In turn, `C[C@]1(O)[C@@H](O)[C@H](n2ccc3c(N)ncnc32)O[C@@H]1[C@](C)(O)c1cccc(C(F)F)c1` [Example 62, 7-{6-deoxy-5-C-[3-(difluoromethyl)phenyl]-3-C-methyl-alpha-L-talofuranosyl}-7H-pyrrolo[2,3-d]pyrimidin-4-amine] gave a pEC50 of 8.03.

`C[C@@]1(O)[C@@H]([C@@H](O)c2cc(F)c(F)c(C(F)F)c2)O[C@@H](n2ccc3c(N)ncnc32)[C@@H]1O` [Example 65, 7-{(5S)-5-C-[3-(difluoromethyl)-4,5-difluorophenyl]-3-C-methyl-beta-D-ribofuranosyl}-7H-pyrrolo[2,3-d]pyrimidin-4-amine] gave a pEC50 of less than 5.00.

`C[C@@]1(O)[C@@H]([C@@H](O)c2cc(Cl)cc(C(F)(F)F)c2)O[C@@H](n2ccc3c(N)ncnc32)[C@@H]1O` [Example 61, 7-{(5S)-5-C-[3-chloro-5-(trifluoromethyl)phenyl]-3-C-methyl-beta-D-ribofuranosyl}-7H-pyrrolo[2,3-d]pyrimidin-4-amine] had a pEC50 of less than 5.00.

In turn, `C[C@@]1(O)[C@@H]([C@@H](O)c2cccc(F)c2F)O[C@@H](n2ccc3c(N)ncnc32)[C@@H]1O` [Example 45, 7-[(5S)-5-C-(2,3-difluorophenyl)-3-C-methyl-beta-D-ribofuranosyl]-7H-pyrrolo[2,3-d]pyrimidin-4-amine] had a pEC50 of less than 5.00.

The molecule `C[C@@]1(O)[C@@H]([C@H](O)c2cccc(F)c2)O[C@@H](n2ccc3c(N)ncnc32)[C@@H]1O` [Example 20, 7-[(5R)-5-C-(3-fluorophenyl)-3-C-methyl-beta-D-ribofuranosyl]-7H-pyrrolo[2,3-d]pyrimidin-4-amine] gave a pEC50 of 6.85.

As for `C[C@@]1(O)[C@@H]([C@@H](O)c2ccnc(C(F)F)c2)O[C@@H](n2ccc3c(N)ncnc32)[C@@H]1O` [Example 79, 7-{(5S)-5-C-[2-(difluoromethyl)pyridin-4-yl]-3-C-methyl-beta-D-ribofuranosyl}-7H-pyrrolo[2,3-d]pyrimidin-4-amine], the pEC50 is less than 5.00.

On to `C[C@@]1(O)[C@@H]([C@H](O)c2cc(F)cc(F)c2)O[C@@H](n2ccc3c(N)ncnc32)[C@@H]1O` [Example 22, 7-[(5R)-5-C-(3,5-difluorophenyl)-3-C-methyl-beta-D-ribofuranosyl]-7H-pyrrolo[2,3-d]pyrimidin-4-amine], for which the pEC50 is 7.23.

Consider `C[C@@]1(O)[C@@H]([C@@H](O)c2ccc(F)c(F)c2)O[C@@H](n2ccc3c(N)ncnc32)[C@@H]1O` [Example 2, (2R,3S,4R,5R)-5-(4-amino-7H-pyrrolo[2,3-d]pyrimidin-7-yl)-2-((S)-(3,4-difluorophenyl)(hydroxy)methyl)-3-methyltetrahydrofuran-3,4-diol], for which the pEC50 is less than 5.00.

For the molecule `C[C@@]1(O)[C@@H]([C@H](O)c2ccc(Cl)cc2F)O[C@@H](n2ccc3c(N)ncnc32)[C@@H]1O` [Example 42, 7-[(5R)-5-C-(4-chloro-2-fluorophenyl)-3-C-methyl-beta-D-ribofuranosyl]-7H-pyrrolo[2,3-d]pyrimidin-4-amine], the pEC50 was 5.74.

In turn, `Cc1ncnc2c1ccn2[C@@H]1O[C@H]([C@@H](C)c2cccc3c2CNCC3)[C@@](C)(O)[C@H]1O` [Example 87, (2R,3S,4R,5R)-3-methyl-5-(4-methyl-7H-pyrrolo[2,3-d]pyrimidin-7-yl)-2-((S)-1-(1,2,3,4-tetrahydroisoquinolin-8-yl)ethyl)tetrahydrofuran-3,4-diol] had a pEC50 of 7.19.

For `C[C@@]1(O)[C@@H]([C@@H](O)c2cncc(C(F)F)c2)O[C@@H](n2ccc3c(N)ncnc32)[C@@H]1O` [Example 75, 7-{(5S)-5-C-[5-(difluoromethyl)pyridin-3-yl]-3-C-methyl-beta-D-ribofuranosyl}-7H-pyrrolo[2,3-d]pyrimidin-4-amine], the pEC50 is less than 5.00.

The molecule `C[C@@]1(O)[C@@H]([C@H](O)c2ccnc(C(F)F)c2)O[C@@H](n2ccc3c(N)ncnc32)[C@@H]1O` [Example 78, 7-{(5R)-5-C-[2-(difluoromethyl)pyridin-4-yl]-3-C-methyl-beta-D-ribofuranosyl}-7H-pyrrolo[2,3-d]pyrimidin-4-amine] had a pEC50 of 5.85.

One may read the pEC50 as the negative decadic logarithm of the EC50, by convention in mol/L. Read a low pEC50 as a large EC50.
